Assay results from ChEMBL document CHEMBL5365481, “Design, Synthesis, and Activity Evaluation of Novel Dual-Target Inhibitors with Antifungal and Immunoregulatory Properties” (J Med Chem, 2023).
In brackets after ≈: the same amount, converted by molar mass.

Tests used:
Type in all cases: functional
Pichia kudriavzevii = experiment: Antifungal activity against Candida krusei ATCC 6258 assessed as inhibition of fungal growth incubated for 72 hrs by CLSI based liquid medium microdilution method
Cryptococcus neoformans = experiment: Antifungal activity against Cryptococcus neoformans ZKCC 2209 assessed as inhibition of fungal growth incubated for 72 hrs by CLSI based liquid medium microdilution method
Candida tropicalis = experiment: Antifungal activity against Candida tropicalis ATCC 1369 assessed as inhibition of fungal growth incubated for 72 hrs by CLSI based liquid medium microdilution method
Aspergillus fumigatus = experiment: Antifungal activity against Aspergillus fumigatus KM8001 assessed as inhibition of fungal growth incubated for 72 hrs by CLSI based liquid medium microdilution method
Candida albicans = experiment: Antifungal activity against Candida albicans ATCC SC5314 assessed as inhibition of fungal growth incubated for 72 hrs by CLSI based liquid medium microdilution method

MIC50 (Pichia kudriavzevii) | MIC50 (Cryptococcus neoformans) | MIC50 (Candida tropicalis) | MIC50 (Aspergillus fumigatus) | MIC50 (Candida albicans) | Structure (SMILES)
2 µg/mL (≈ 5.4 µM) | 4 µg/mL (≈ 10.8 µM) | 1 µg/mL (≈ 2.7 µM) | > 8 µg/mL | 2 µg/mL (≈ 5.4 µM) | O=C(NC1CCCc2ccccc21)c1nc(-n2cncn2)c2ccccc2n1 (stereo not given)
4 µg/mL (≈ 12.1 µM) | 2 µg/mL (≈ 6.05 µM) | 1 µg/mL (≈ 3.03 µM) | > 8 µg/mL | 2 µg/mL (≈ 6.05 µM) | O=C(NCc1ccccc1)c1nc(-n2cncn2)c2ccccc2n1
2 µg/mL (≈ 5.41 µM) | 2 µg/mL (≈ 5.41 µM) | 4 µg/mL (≈ 10.8 µM) | 4 µg/mL (≈ 10.8 µM) | 4 µg/mL (≈ 10.8 µM) | O=C(NC1CCCc2ccccc21)c1nc(-n2ccnc2)c2ccccc2n1 (stereo not given)
1 µg/mL (≈ 3.04 µM) | 4 µg/mL (≈ 12.1 µM) | 2 µg/mL (≈ 6.07 µM) | > 8 µg/mL | 2 µg/mL (≈ 6.07 µM) | O=C(NCc1ccccc1)c1nc(-n2ccnc2)c2ccccc2n1
0.5 µg/mL (≈ 1.06 µM) | 2 µg/mL (≈ 4.26 µM) | 1 µg/mL (≈ 2.13 µM) | 4 µg/mL (≈ 8.52 µM) | 0.5 µg/mL (≈ 1.06 µM) | CC(C)c1ccc(C(=O)N2CCC(NC(=O)c3nc(-n4cncn4)c4ccccc4n3)CC2)cc1
4 µg/mL (≈ 10.2 µM) | 1 µg/mL (≈ 2.54 µM) | 4 µg/mL (≈ 10.2 µM) | > 8 µg/mL | 2 µg/mL (≈ 5.08 µM) | CS(=O)(=O)c1ccc(NC(=O)c2nc(-n3ccnc3)c3ccccc3n2)cc1
2 µg/mL (≈ 5.07 µM) | 2 µg/mL (≈ 5.07 µM) | 2 µg/mL (≈ 5.07 µM) | 4 µg/mL (≈ 10.1 µM) | 1 µg/mL (≈ 2.54 µM) | CS(=O)(=O)c1ccc(NC(=O)c2nc(-n3cncn3)c3ccccc3n2)cc1
1 µg/mL (≈ 2.55 µM) | 2 µg/mL (≈ 5.09 µM) | 0.5 µg/mL (≈ 1.27 µM) | 4 µg/mL (≈ 10.2 µM) | 0.5 µg/mL (≈ 1.27 µM) | CC(=O)c1ccc(NC(=O)c2nc(-n3cncn3)c3cc(Cl)ccc3n2)cc1
2 µg/mL (≈ 4.69 µM) | 2 µg/mL (≈ 4.69 µM) | 1 µg/mL (≈ 2.34 µM) | > 8 µg/mL | 1 µg/mL (≈ 2.34 µM) | O=C(NC1CCN(C(=O)c2ccccc2)CC1)c1nc(-n2ccnc2)c2ccccc2n1
> 8 µg/mL | 2 µg/mL (≈ 4.94 µM) | 2 µg/mL (≈ 4.94 µM) | > 8 µg/mL | 2 µg/mL (≈ 4.94 µM) | O=C(NC1CCCc2ccccc21)c1nc(-n2cncn2)c2cc(Cl)ccc2n1 (stereo not given)
2 µg/mL (≈ 4.38 µM) | 1 µg/mL (≈ 2.19 µM) | 1 µg/mL (≈ 2.19 µM) | 4 µg/mL (≈ 8.76 µM) | 2 µg/mL (≈ 4.38 µM) | COc1ccc(C(=O)N2CCC(NC(=O)c3nc(-n4ccnc4)c4ccccc4n3)CC2)cc1
0.5 µg/mL (≈ 1.09 µM) | 1 µg/mL (≈ 2.19 µM) | 0.5 µg/mL (≈ 1.09 µM) | 2 µg/mL (≈ 4.37 µM) | 0.5 µg/mL (≈ 1.09 µM) | COc1ccc(C(=O)N2CCC(NC(=O)c3nc(-n4cncn4)c4ccccc4n3)CC2)cc1
